Test results published in US20050164951A1, “Inhibitors for the soluble epoxide hydrolase” (The Regents of the University of California, priority 2003, published 2005).
Like-named read-outs stand apart in the source and are kept apart here.

Tests used:
human sEH = target: T1, human sEH (Homo sapiens, UniProt P34913); test: Inhibition of recombinant human sEH, IC50 assay with 4-nitrophenyl-trans-2,3-epoxy-3-phenylpropyl carbonate as substrate; type: biochemical; conditions: for IC90: 0.24 μM enzyme
T1 construct: made in house; host or cells: baculovirus expression system
T1 sequence (P34913 1-555): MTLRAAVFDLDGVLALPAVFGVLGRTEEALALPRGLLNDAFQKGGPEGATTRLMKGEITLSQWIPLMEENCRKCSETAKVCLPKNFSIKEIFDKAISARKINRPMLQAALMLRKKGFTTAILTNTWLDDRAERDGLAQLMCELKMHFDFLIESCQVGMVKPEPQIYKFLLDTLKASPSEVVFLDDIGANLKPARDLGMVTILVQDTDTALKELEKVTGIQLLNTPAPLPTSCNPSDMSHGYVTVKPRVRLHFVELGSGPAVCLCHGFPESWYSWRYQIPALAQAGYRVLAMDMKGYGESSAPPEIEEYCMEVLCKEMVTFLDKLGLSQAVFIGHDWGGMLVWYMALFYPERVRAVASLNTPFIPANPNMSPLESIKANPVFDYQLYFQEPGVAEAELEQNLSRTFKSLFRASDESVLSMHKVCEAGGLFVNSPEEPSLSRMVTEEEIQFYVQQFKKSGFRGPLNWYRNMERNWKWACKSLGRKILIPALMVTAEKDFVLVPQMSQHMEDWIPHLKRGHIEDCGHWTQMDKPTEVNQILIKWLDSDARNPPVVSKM
Description: (§1) Assays were performed in triplicate. […] The curve was generated from at least three separate runs, each in triplicate, to obtain the standard deviation (SD) given in Table 1 thru Table 4.

mouse sEH = target: T2, mouse sEH (Mus musculus, UniProt P34914); test: Inhibition of recombinant mouse sEH, IC50 assay with 4-nitrophenyl-trans-2,3-epoxy-3-phenylpropyl carbonate as substrate; type: biochemical
T2 construct: made in house; host or cells: baculovirus expression system
T2 sequence (P34914 1-554): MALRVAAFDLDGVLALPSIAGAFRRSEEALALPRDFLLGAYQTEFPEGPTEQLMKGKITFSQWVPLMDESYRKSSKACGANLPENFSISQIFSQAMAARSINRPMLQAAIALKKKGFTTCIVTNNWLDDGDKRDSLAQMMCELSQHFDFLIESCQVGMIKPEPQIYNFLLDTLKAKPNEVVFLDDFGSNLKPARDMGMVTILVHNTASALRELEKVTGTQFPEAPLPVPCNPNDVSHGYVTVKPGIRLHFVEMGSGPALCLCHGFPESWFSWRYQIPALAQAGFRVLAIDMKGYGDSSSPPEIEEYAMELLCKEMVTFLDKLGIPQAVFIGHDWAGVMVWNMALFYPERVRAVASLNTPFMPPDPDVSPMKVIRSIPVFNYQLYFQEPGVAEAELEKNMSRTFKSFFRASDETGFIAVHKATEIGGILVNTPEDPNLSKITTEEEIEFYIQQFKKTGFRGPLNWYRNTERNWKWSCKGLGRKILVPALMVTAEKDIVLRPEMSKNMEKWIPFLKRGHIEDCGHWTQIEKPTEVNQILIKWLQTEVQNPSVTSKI
Description: as §1

[1] = Blood concentration after oral administration of 950 and AUDA-nBE, human pharmacokinetic profile; type: in vivo; conditions: see FIGS. 15-27
Description: FIG. 16 provides a sample preparation procedure for a pharmacokinetic study. A 5 μl whole blood sample was drawn into a capillary at a specific time point, each sample was extracted and anaylzed by LC/MS-MS. […] AUDA is the active metabolite of AUDA-nBE. […] 0.05 mg/kg. (B). 0.1 mg/kg. […] The compounds were administered at the same time in the same formulation. […] 21 mg (0.3 mg/kg) 950 and AUDA-nBE were orally administrated with starch. (B). 7 mg (0.1 mg/kg) formulated 950 and AUDA-NBE were taken with (HPMC, starch and lactose). (C). […] 950 with HPMC and Starch. (B). 950 in lactose and HPMC. […] HPMC forms a gel which slowly erodes; lactose enhances erosion at it moves through the gut and starch retards it. These formulations are combined, ball milled, and then placed in ‘0’ capsule and not compressed.

[2] = Tables 17a and b, read-out: IC50 (μM) Human sEH
[3] = Tables 17a and b, read-out: IC50 (μM) Mouse sEH
[4] = Table 4, […] enzyme, 5 min preincubation, pH 7.4, 30° C., means ± SD, read-out: IC50 (μM) Human sEH
[5] = Table 4, […] enzyme, 5 min preincubation, pH 7.4, 30° C., means ± SD, read-out: IC50 (μM) Mouse sEH
[6] = Table 1, […] enzyme, 5 min preincubation, pH 7.4, 30° C., [S] = 40 μM, means ± SD of three experiments, read-out: IC50 (μM) Human sEH
[7] = Table 1, 0.12 μM enzyme, 5 min preincubation, pH 7.4, 30° C., [S] = 40 μM, means ± SD of three experiments, read-out: IC50 (μM) Mouse sEH
[8] = Table 5, 5 min preincubation, pH 7.4, 30° C., means ± SD
[9] = Table 5, […] enzyme, 5 min preincubation, pH 7.4, 30° C., means ± SD, read-out: Human sEH IC50
[10] = Table 5, 0.12 μM enzyme, 5 min preincubation, pH 7.4, 30° C., means ± SD
[11] = Table 5, […] enzyme, 5 min preincubation, pH 7.4, 30° C., means ± SD, read-out: Mouse sEH IC50

For `O=C(NC12CC3CC(CC(C3)C1)C2)C(F)(F)C(F)(F)C(F)(F)C(F)(F)C(F)(F)C(F)(F)C(F)(F)C(F)(F)C(F)(F)C(F)(F)C(F)(F)F` [Compound 903], the IC50 (human sEH; [2]) was 0.01 ± 0.01 µM and the IC50 (mouse sEH; [3]) was 0.1 ± 0.01 µM.

For `CCCCCCCCC(NC(=O)CCCCCCCCCCCNC(=O)NC12CC3CC(CC(C3)C1)C2)C(=O)O` (centres unmarked) [Compound 1001], the IC50 (human sEH; [2]) was 0.24 ± 0.01 µM and the IC50 (mouse sEH; [3]) was 0.05 ± 0.01 µM.

With `O=C(NCCCN1CCOCC1)NC12CC3CC(CC(C3)C1)C2` [Compound 1016] the IC50 (human sEH; [2]) was 6 ± 0.01 µM and the IC50 (mouse sEH; [3]) was 0.05 ± 0.01 µM.

In the case of `COC(=O)CCCCCCCCCCCNC(=O)NC12CC3CC(CC(C3)C1)C2` [Compound 780, 1-(1-adamantyl)-3-(11-methoxycarbonylundecyl)urea], the IC50 (human sEH; [4]) is reported as 0.1 ± 0.01 µM and the IC50 (mouse sEH; [5]) is reported as 0.05 ± 0.01 µM.

In the case of `CCOC(=O)CCCCCCCCCCCNC(=O)NC12CC3CC(CC(C3)C1)C2` [Compound 784, 1-(1-Adamantyl)-3-(11-ethoxycarbonylundecyl)urea], the IC50 (human sEH; [4]) is reported as 0.1 ± 0.01 µM and the IC50 (mouse sEH; [5]) is reported as 0.05 ± 0.01 µM.

`CCCCCCCCCCNC(=O)CC12CC3CC(CC(C3)C1)C2` [Compound 1018] showed an IC50 (human sEH; Table 8, established protocols, read-out: IC50 (μM) Human sEH) of 0.1 ± 0.01 µM and an IC50 (mouse sEH; Table 8, established protocols, read-out: IC50 (μM) Mouse sEH) of 0.05 ± 0.01 µM.

In the case of `COC(=O)CCCCNC(=O)NC1CCCCC1` [Compound 854], the IC50 (human sEH; [6]) is reported as 5 ± 0.6 µM and the IC50 (mouse sEH; [7]) is reported as 0.13 ± 0.03 µM.

For `CCCCCOC(=O)CCCNC(=O)Cc1cccc(Cl)c1` [Compound 988], the IC50 (human sEH; [2]) was 5 ± 0.01 µM and the IC50 (mouse sEH; [3]) was 2.9 ± 0.01 µM.

For `O=C(O)CCCCNC(=O)NC1CCCCC1` [Compound 884], the IC50 (human sEH; [6]) was 2.4 ± 0.1 µM and the IC50 (mouse sEH; [7]) was 0.25 ± 0.02 µM.

For `O=C(NC1CCC(OCCOCCOCC(F)(F)F)CC1)NC12CC3CC(CC(C3)C1)C2` (centres unmarked) [Compound 985], the IC50 (human sEH; Table 9, established protocols, read-out: IC50 (μM) Human sEH) was 0.1 ± 0.01 µM and the IC50 (mouse sEH; Table 9, established protocols, read-out: IC50 (μM) Mouse sEH) was 0.05 ± 0.01 µM.

`CCOC(=O)c1ccc(C(OC(=O)CCCNC(=O)NC23CC4CC(CC(C4)C2)C3)c2ccccc2)cc1` (centres unmarked) [Compound 949] gave an IC50 (human sEH; [2]) of 0.1 ± 0.01 µM and an IC50 (mouse sEH; [3]) of 0.05 ± 0.01 µM.

For `CCOC(=O)CCCCCCCCCCOC(=O)CCCNC(=O)NC12CC3CC(CC(C3)C1)C2` [Compound 881], the IC90 (human sEH; [8]) was 1200 ± 100 nM, the IC50 (human sEH; [9]) was 0.1 ± 0.01 µM and the IC90 (mouse sEH; [10]) was 350 ± 50 nM. For the same molecule, the IC50 (mouse sEH; [11]) was 0.05 ± 0.01 µM.

`CCOC(=O)CCCOC(=O)CCCNC(=O)NC12CC3CC(CC(C3)C1)C2` [Compound 858] showed an IC90 (human sEH; [8]) of 5000 ± 100 nM, an IC50 (human sEH; [9]) of 0.12 ± 0.01 µM and an IC90 (mouse sEH; [10]) of 160 ± 10 nM. The IC50 (mouse sEH; [11]) was 0.05 ± 0.01 µM.

With `COCCOCCOCCOCCCCCNC(=O)NC12CC3CC(CC(C3)C1)C2` [Compound 952] the “pharmacokinetics” value [1] was “improved pharmacokinetics”.

In the case of `CCOC(=O)CCCCCCOC(=O)CCCNC(=O)NC12CC3CC(CC(C3)C1)C2` [Compound 878], the IC90 (human sEH; [8]) is reported as 810 ± 10 nM, the IC50 (human sEH; [9]) is reported as 0.12 ± 0.01 µM and the IC90 (mouse sEH; [10]) is reported as 130 ± 10 nM. For the same molecule, the IC50 (mouse sEH; [11]) was 0.05 ± 0.01 µM.

For `O=C(CC1CCCCC1)NCCCc1ccccc1` [Compound 990], the IC50 (human sEH; [2]) was 1.1 ± 0.01 µM and the IC50 (mouse sEH; [3]) was 0.73 ± 0.01 µM.

Work on `CCCCCOC(=O)CCCn1ccn(C23CC4CC(CC(C4)C2)C3)c1=O` [Compound 958] yielded an IC50 (human sEH; [2]) of 17 ± 0.01 µM and an IC50 (mouse sEH; [3]) of 0.7 ± 0.01 µM.

Work on `O=C(Cc1cccc(Cl)c1)NC1CCCCC1` [Compound 969] yielded an IC50 (human sEH; [2]) of 38 ± 0.01 µM and an IC50 (mouse sEH; [3]) of 0.56 ± 0.01 µM.

With `COc1ccc(NC(=O)CC2CCCCC2)cc1` [Compound 965] the IC50 (human sEH) was 6 ± 0.01 µM and the IC50 (mouse sEH; [3]) was 0.15 ± 0.01 µM.

With `CCCC(C)COCCOCCOCCCCCNC(=O)NC12CC3CC(CC(C3)C1)C2` (centres unmarked) [Compound 1003] the IC50 (human sEH; Table 7, established protocols, read-out: IC50 (μM) Human sEH) was 0.13 ± 0.01 µM, the IC50 (human sEH; [2]) was 0.13 ± 0.01 µM and the IC50 (mouse sEH; Table 7, established protocols, read-out: IC50 (μM) Mouse sEH) was 0.05 ± 0.01 µM. The IC50 (mouse sEH; [3]) was 0.05 ± 0.01 µM.
